Measured values reported in patent US20230278972A1, “SUBSTITUTED HALOALKYL SULFONANILIDE HERBICIDES” (FMC Corporation, priority 2020, published 2023).

Experiments:
Format in all cases: in vivo
[1] = tested on: wheat (Triticum aestivum); assay: Test A postemergence, wheat; conditions: Postemergence, 0 to 100 scale (0 no effect, 100 complete control); for Plant response rating, Wheat: 125 g ai/ha; for Wheat plant response rating: 500 g ai/ha, visual injury vs untreated controls after approx. 10 days
Description: (§1) Seeds of plant species selected from barnyardgrass (Echinochloa crus-galli), kochia (Bassia scoparia), ragweed (common ragweed, Ambrosia artemisiifolia), Ryegrass, Italian (Italian ryegrass, Lolium multiflorum), Foxtail, Giant (giant foxtail, Setaria faberi), and pigweed (Amaranthus retroflexus) were planted into a blend of loam soil and sand and treated preemergence with a directed soil spray using test chemicals formulated in a non-phytotoxic solvent mixture which included a surfactant. At the same time, plants selected from these weed species and also wheat (Triticum aestivum), corn (Zea mays), blackgrass (Alopecurus myosuroides), and galium (catchweed bedstraw, Galium aparine) were planted in pots containing the same blend of loam soil and sand and treated with postemergence applications of test chemicals formulated in the same manner. Plants ranged in height from 2 to 10 cm and were in the one- to two-leaf stage for the postemergence treatment. […] A dash (-) response means no test result.

[2] = tested on: Foxtail, Giant (giant foxtail, Setaria faberi); assay: Test A preemergence, Foxtail, Giant; conditions: Preemergence; for Plant response rating, Foxtail, Giant: 0 to 100 scale (0 no effect, 100 complete control)
Description: as §1

[3] = tested on: Ryegrass, Italian (Italian ryegrass, Lolium multiflorum); assay: Test A preemergence, Ryegrass, Italian; conditions: Preemergence; for Plant response rating, Ryegrass, Italian: 0 to 100 scale (0 no effect, 100 complete control)
Description: as §1

[4] = tested on: ragweed (common ragweed, Ambrosia artemisiifolia); assay: Test A preemergence, ragweed; conditions: Preemergence; for Plant response rating, Ragweed: 0 to 100 scale (0 no effect, 100 complete control)
Description: as §1

corn (Zea mays) = assay: Test A postemergence, corn; conditions: Postemergence, 0 to 100 scale (0 no effect, 100 complete control); for Plant response rating, Corn: 125 g ai/ha; for Corn plant response rating: 500 g ai/ha, visual injury vs untreated controls after approx. 10 days
Description: as §1

[5] = tested on: pigweed (Amaranthus retroflexus); assay: Test A postemergence, pigweed; conditions: Postemergence, 0 to 100 scale (0 no effect, 100 complete control); for Plant response rating, Pigweed: 125 g ai/ha; for Pigweed plant response rating: 500 g ai/ha, visual injury vs untreated controls after approx. 10 days
Description: as §1

kochia (Bassia scoparia) [6] = assay: Test A postemergence, kochia; conditions: Postemergence, 0 to 100 scale (0 no effect, 100 complete control); for Plant response rating, Kochia: 125 g ai/ha; for Kochia plant response rating: 500 g ai/ha, visual injury vs untreated controls after approx. 10 days
Description: as §1

[7] = tested on: Ryegrass, Italian (Italian ryegrass, Lolium multiflorum); assay: Test A postemergence, Ryegrass, Italian; conditions: Postemergence, 0 to 100 scale (0 no effect, 100 complete control); for Plant response rating, Ryegrass, Italian: 125 g ai/ha; for Ryegrass, Italian plant response rating: 500 g ai/ha, visual injury vs untreated controls after approx. 10 days
Description: as §1

[8] = tested on: Foxtail, Giant (giant foxtail, Setaria faberi); assay: Test A postemergence, Foxtail, Giant; conditions: Postemergence, 0 to 100 scale (0 no effect, 100 complete control); for Plant response rating, Foxtail, Giant: 125 g ai/ha; for Foxtail, Giant plant response rating: 500 g ai/ha, visual injury vs untreated controls after approx. 10 days
Description: as §1

kochia (Bassia scoparia) [9] = assay: Test A preemergence, kochia; conditions: Preemergence; for Plant response rating, Kochia: 0 to 100 scale (0 no effect, 100 complete control)
Description: as §1

[10] = tested on: galium (catchweed bedstraw, Galium aparine); assay: Test A postemergence, galium; conditions: Postemergence, 0 to 100 scale (0 no effect, 100 complete control); for Plant response rating, Galium: 125 g ai/ha; for Galium plant response rating: 500 g ai/ha, visual injury vs untreated controls after approx. 10 days
Description: as §1

[11] = tested on: barnyardgrass (Echinochloa crus-galli); assay: Test A preemergence, barnyardgrass; conditions: Preemergence; for Plant response rating, Barnyardgrass: 0 to 100 scale (0 no effect, 100 complete control)
Description: as §1

[12] = tested on: blackgrass (Alopecurus myosuroides); assay: Test A postemergence, blackgrass; conditions: Postemergence, 0 to 100 scale (0 no effect, 100 complete control); for Plant response rating, Blackgrass: 125 g ai/ha; for Blackgrass plant response rating: 500 g ai/ha, visual injury vs untreated controls after approx. 10 days
Description: as §1

[13] = tested on: pigweed (Amaranthus retroflexus); assay: Test A preemergence, pigweed; conditions: for Plant response rating, Pigweed: 0 to 100 scale (0 no effect, 100 complete control)
Description: as §1

[14] = tested on: ragweed (common ragweed, Ambrosia artemisiifolia); assay: Test A postemergence, ragweed; conditions: Postemergence, 0 to 100 scale (0 no effect, 100 complete control); for Plant response rating, Ragweed: 125 g ai/ha; for Ragweed plant response rating: 500 g ai/ha, visual injury vs untreated controls after approx. 10 days
Description: as §1

[15] = 125 g ai/ha, visual injury on 0 to 100 scale (0 no effect, 100 complete control), approximately 10 days
[16] = 125 g ai/ha, visual injury, approx. 10 days

Row | Compound | Wheat plant response rating [1] | Plant response rating, Foxtail, Giant ([2]; 500 g ai/ha) | Plant response rating, Ryegrass, Italian ([3]; 500 g ai/ha) | Plant response rating, Ragweed ([4]; 500 g ai/ha) | Corn plant response rating (corn (Zea mays)) | Pigweed plant response rating [5] | Kochia plant response rating (kochia (Bassia scoparia) [6]) | Ryegrass, Italian plant response rating [7] | Foxtail, Giant plant response rating [8] | Plant response rating, Kochia (kochia (Bassia scoparia) [9]; 500 g ai/ha) | Galium plant response rating [10] | Plant response rating, Barnyardgrass ([11]; 500 g ai/ha) | Blackgrass plant response rating [12] | Plant response rating, Pigweed ([13]; 500 g ai/ha) | Ragweed plant response rating [14] | Plant response rating, Wheat [1] | Plant response rating, Foxtail, Giant [2, 16] | Plant response rating, Ryegrass, Italian [3, 16] | Plant response rating, Ragweed [4, 16] | Plant response rating, Corn (corn (Zea mays)) | further results
1 | Cc1cc(C)c(N(S(C)(=O)=O)S(=O)(=O)C(F)(F)F)cc1-c1ccnn(C)c1=O [Compound 73] | 70 | 100 | 100 | 80 | 70 | 80 | 70 | 90 | 90 | 90 | 90 | 90 | 80 | 100 | 80 |  |  |  |  |  | Plant response rating, Wheat ([1]; visual injury approx. 10 days): 60; Foxtail, Giant plant response rating [2, 15]: 100; Ryegrass, Italian plant response rating [3, 15]: 90; Ragweed plant response rating [4, 15]: 80; Plant response rating, Corn (corn (Zea mays); visual injury approx. 10 days): 10; Plant response rating, Pigweed ([5]; visual injury approx. 10 days): 60; Plant response rating, Kochia (kochia (Bassia scoparia) [6]; visual injury approx. 10 days): 10; Plant response rating, Ryegrass, Italian ([7]; visual injury approx. 10 days): 60; Plant response rating, Foxtail, Giant ([8]; visual injury approx. 10 days): 80; Kochia plant response rating (kochia (Bassia scoparia) [9]; [15]): 80; Plant response rating, Galium ([10]; visual injury approx. 10 days): 90; Barnyardgrass plant response rating [11, 15]: 90; Plant response rating, Blackgrass ([12]; visual injury approx. 10 days): 40; Pigweed plant response rating [13, 15]: 90; Plant response rating, Ragweed ([14]; visual injury approx. 10 days): 20
2 | Cc1cc(Cl)c(N(S(=O)(=O)C(F)(F)F)S(=O)(=O)C(F)(F)F)cc1C(=O)N1CCC(Cl)CC1 [Compound 200] | 70 | 100 | 90 | 90 | 20 | 90 | 40 | 20 | 20 | 90 | 90 | 100 | 0 | 100 | 30 | 20 | 90 | 30 | 40 | 0 | Plant response rating, Pigweed [5]: 60; Plant response rating, Kochia (kochia (Bassia scoparia) [6]): 10; Plant response rating, Ryegrass, Italian [7]: 20; Plant response rating, Foxtail, Giant [8]: 0; Plant response rating, Kochia (kochia (Bassia scoparia) [9]; [16]): 60; Plant response rating, Galium [10]: 60; Plant response rating, Barnyardgrass [11, 16]: 30; Plant response rating, Blackgrass [12]: 0; Plant response rating, Pigweed [13, 16]: 100; Plant response rating, Ragweed [14]: 0
3 | Cc1cc(Cl)c(NS(=O)(=O)C(F)(F)F)cc1C(=O)N1CCC(F)CC1 [Compound 201] | 70 | 100 | 90 | 100 | 50 | 100 | 90 | 70 | 90 | 100 | 90 | 100 | 30 | 100 | 90 | 60 | 50 | 60 | 70 | 20 | Plant response rating, Pigweed [5]: 60; Plant response rating, Kochia (kochia (Bassia scoparia) [6]): 60; Plant response rating, Ryegrass, Italian [7]: 30; Plant response rating, Foxtail, Giant [8]: 50; Plant response rating, Kochia (kochia (Bassia scoparia) [9]; [16]): 90; Plant response rating, Galium [10]: 90; Plant response rating, Barnyardgrass [11, 16]: 50; Plant response rating, Blackgrass [12]: 20; Plant response rating, Pigweed [13, 16]: 100; Plant response rating, Ragweed [14]: 80
